The text below walks through data of paper PMC10643403, “Targeting the Schistosoma mansoni nutritional mechanisms to design new antischistosomal compounds” (Scientific Reports, 2023).

Where two headings read alike, the source gives them in different places. Where only a bound is given, the exact number is not on record here.

Data set [1] relates to S. mansoni adult worms. Briefly: In vitro antischistosomal assay on adult worms. The data set is classed as cell-based, Schistosoma mansoni. The following applies: for Activity against 49-day-old S. mansoni worms at 50 µM: adult worms, initial in vitro trial, 72 h; for EC50: Schistosoma mansoni, based on mortality, after 72 h, 95% confidence interval in square brackets. As for the experimental part: The antischistosomal assay was performed according to the methodology previously described[16],[19],[20]. Briefly, […], were incubated in flat bottom 24-well plates (Corning, New York, NY, USA) in RPMI 1640 culture medium (Vitrocell, Campinas, SP, Brazil) supplemented with 5% inactivated fetal calf serum, antibiotics (100 U/mL penicillin and 100 μg/mL streptomycin), and buffered with HEPES 25 mM (Sigma-Aldrich, St. Louis, MO, USA). Compounds were dissolved in dimethyl sulfoxide (DMSO at a final concentration of 0.5% v/v) and tested at 50 μM using PZQ 2 μM and DMSO 0.5% as positive and negative controls, respectively. Parasites were kept for 72 h (37 °C, 5% CO2, Panasonic, Osaka, Japan) and their viability was assessed using a Motic AE2000 inverted microscope (Vancouver, Canada)[21]. Each experiment was performed in triplicate and repeated at least three times. The negative control (using the highest concentration of DMSO, i.e., 0.5) and positive control (praziquantel 2 µM) were included.
Each concentration was tested in five replicates, and experiments were repeated once.

Data set [2] deals with Caenorhabditis elegans. It counts as in vivo. As to conditions: L4 stage, 24 h. On the procedure:
Caenorhabditis elegans wild-type (N2 strain), kindly provided by Dr. Carlos E. Winter (University of São Paulo), was routinely cultured at 22 °C on nematode growth medium (NGM) plates seeded with Escherichia coli (strain OP50) as a food source according to standard protocols.
For the drug assessment, the age-synchronized L1 stage was cultivated on standard NGM plates. When at the L4 stage, approximately 25 nematodes were transferred to each well of a 96-wells NGM plates containing the drug of interest at the desired concentration (10, 25, 50, 100, and 200 μM) along with a positive control (levamisole 10 μM) and a negative control (DMSO 0.5%). Nematodes were kept at 22 °C for 24 h, and their viability was verified microscopically using a Motic AE2000 inverted microscope (Vancouver, Canada) equipped with an ultra-high definition (UHD) camera and with a 48-inch 4K-UHD monitor system (LG Electronics, São Paulo, Brazil)[33].

Data set [3] deals with Vero cells. Briefly: In vitro cytotoxicity assay (MTT) on Vero cells. It counts as cell-based, African green monkey. The following applies: CC50 on Vero cells divided by EC50 on schistosomes (based on the highest concentration). On the procedure: (§1) The life cycle of S. mansoni (Belo Horizonte strain) is maintained through routine passage through Biomphalaria glabrata snails and Swiss mice at the Research Center on Neglected Diseases (Guarulhos University, SP, Brazil). Both rodents and snails were kept under environmentally controlled conditions (25 °C; humidity of 50%), with free access to food and water. Vero cells were obtained from the American Type Culture Collection (ATCC CCL-81; Manassas, VA, USA). Cells were routinely cultured in Dulbecco’s Modified Eagle Medium (DMEM) supplemented with 5% heat-inactivated fetal bovine serum and antibiotics (100 U/mL penicillin and 100 μg/mL streptomycin) at 37 °C in a humidified atmosphere containing 5% CO2 [17].
(§2) The cytotoxicity of the compounds on the Vero cells was determined by thiazolyl blue tetrazolium bromide (MTT) assay (Sigma-Aldrich) as previously described[21],[24]. […] After 72 h, MTT solution was added to each well and the absorbance at 595 nm was read on a spectrophotometer (Epoch, BioTek Instruments, Winooski, VT, USA).

Data set [4] in a line: In vitro cytotoxicity assay (MTT) on Vero cells. The data set is classed as cell-based, African green monkey. As to conditions: African green monkey, Vero cells (ATCC CCL-81); Vero cells; MTT assay; 72 h; read-out: Mammalian cells CC50. On the procedure: as §1, §2
Background: Tetrazolium dyes change colour on reduction, which living cells bring about.

Data set [5] concerns cathepsin B1 from Schistosoma mansoni (SmCB1). Set-up: method as in ref 2 (Fonseca et al.). The following applies: ref 2 (Fonseca et al.), cited from earlier work.
[6] abbreviates: female adult worms, read-out: S. mansoni EC50 Female.
Setting [7] is: male adult worms, read-out: S. mansoni EC50 Male.

By melting point is commonly meant the temperature, or range, at which the solid turns liquid. On to `Clc1ccc2c(N/N=C/c3ccccc3)ccnc2c1` [GPQF-8Q1, 4-[(2E)-2-benzylidenehydrazinyl]-7-chloroquinoline], for which the melting point was 220 to 224 °C. For the same compound, in data set [1], the “Activity against 49-day-old S. mansoni worms at 50 µM” value (“Activity” for short) is “Inactive”.

On to `O=[N+]([O-])c1ccc(/C=N/Nc2ccnc3cc(Cl)ccc23)cc1` [GPQF-8Q3, 7-Chloro-4-[(2E)-2-(4-nitrobenzylidene)hydrazinyl]quinoline], for which, in data set [1], the “Activity” value is “Inactive”.

As to `COc1cc(/C=N/Nc2ccnc3cc(Cl)ccc23)ccc1O` [GPQF-8Q4, 4-{(E)-[2-(7-chloroquinolin-4-yl)hydrazinylidene]methyl}-2-methoxyphenol], in data set [1], the “Activity” value is on record as “Inactive”.

As to `O=[N+]([O-])c1ccc(/C=N/Nc2ccnc3cc(Cl)ccc23)o1` [GPQF-8Q6, 7-Chloro-4-{(2E)-2-[(5-nitrofuran-2-yl)methylidene]hydrazinyl}quinoline], the “Activity” value in data set [1] was “Inactive”.

A word on the CC50: it is the concentration giving 50% cytotoxicity. One may read the EC50 as the concentration needed to bring the measured effect to its halfway point. For `Cc1ccc(/C=N/Nc2ccnc3cc(Cl)ccc23)cc1` [GPQF-8Q10, 7-Chloro-4-[(2E)-2-(4-methylbenzylidene)hydrazinyl]quinoline], the “Survival percentage of C. elegans” value in data set [2] (10 μM), in data set [2] (25 μM), in data set [2] (50 μM), in data set [2] (100 μM) and in data set [2] (200 μM) was 100% in each case. In data set [3], the “SI (selectivity index)” value is greater than 12.8. Besides, the CC50 at 72 h in data set [4] is greater than 200 µM. The “Time to worm mortality” value in data set [1] (25 µM) is recorded as no more than 24 h. The “Activity” value in data set [1] is recorded as “Active”. Further, the values for the EC50 in data set [1] (setting [6]) and in data set [1] (setting [7]) were 15.6 µM and 13.3 µM, respectively.

`Fc1ccc(/C=N/Nc2ccnc3cc(Cl)ccc23)cc1` [GPQF-8Q12, 7-Chloro-4-[(2E)-2-(4-fluorobenzylidene)hydrazinyl]quinoline] had a melting point of 236 to 241 °C.

As to `Clc1ccc2c(N/N=C/c3ccc(Cl)c(Cl)c3)ccnc2c1` [GPQF-8Q13, 7-Chloro-4-[(2E)-2-(3,4-dichlorobenzylidene)hydrazinyl]quinoline], the melting point was 320 °C (dec.). Moreover, the “Activity” value in data set [1] is given as “Inactive”.

Consider `Oc1ccc(/C=N/Nc2ccnc3cc(Cl)ccc23)c(O)c1` [GPQF-8Q14, 4-{(E)-[2-(7-chloroquinolin-4-yl)hydrazinylidene]methyl}benzene-1,3-diol], for which, in data set [1], the “Activity” value was “Inactive”.

As for `C/C(=N\Nc1ccnc2cc(Cl)ccc12)c1ccccc1` [GPQF-8Q16, 7-Chloro-4-[(2E)-2-(1-phenylethylidene)hydrazinyl]quinoline], the melting point was 302 to 306 °C. Besides, in data set [1], the “Activity” value is “Inactive”.

With `C/C(=N\Nc1ccnc2cc(Cl)ccc12)c1ccc(O)cc1` [GPQF-8Q17, 4-{(1E)-1-[2-(7-chloroquinolin-4-yl)hydrazinylidene]ethyl}phenol], the “Activity” value in data set [1] was “Inactive”.

As to `C/C(=N\Nc1ccnc2cc(Cl)ccc12)c1ccc(C)cc1` [GPQF-8Q18, 7-Chloro-4-{(2E)-2-[1-(4-methylphenyl)ethylidene]hydrazinyl}quinoline], the melting point was 310 °C (dec.). The “Activity” value in data set [1] is listed as “Inactive”.

For `CCc1ccc(/C(C)=N/Nc2ccnc3cc(Cl)ccc23)cc1` [GPQF-8Q19, 7-Chloro-4-{(2E)-2-[1-(4-ethylphenyl)ethylidene]hydrazinyl}quinoline], the melting point lay within 300 to 304 °C. Moreover, in data set [1], the “Activity” value was “Inactive”.

`C/C(=N\Nc1ccnc2cc(Cl)ccc12)c1ccc(Cl)c(Cl)c1` [GPQF-8Q20, 7-Chloro-4-{(2E)-2-[1-(3,4-dichlorophenyl)ethylidene]hydrazinyl}quinoline] yielded a melting point of 294 to 298 °C. Besides, in data set [1], the “Activity” value is recorded as “Inactive”.

`C/C(CCc1ccccc1)=N\Nc1ccnc2cc(Cl)ccc12` [GPQF-8Q21, 7-Chloro-4-[(2E)-2-(4-phenylbutan-2-ylidene)hydrazinyl]quinoline] returned a melting point of 161 to 166 °C. The “Activity” value in data set [1] is “Inactive”.

Consider `CC/C(C)=N/Nc1ccnc2cc(Cl)ccc12` [GPQF-8Q22, 4-[(2E)-2-(butan-2-ylidene)hydrazinyl]-7-chloroquinoline], for which the melting point fell in the range of 71 to 74 °C. In data set [1], the “Activity” value is “Inactive”.

Take `CCC/C(C)=N/Nc1ccnc2cc(Cl)ccc12` [GPQF-8Q23, 7-Chloro-4-[(2E)-2-(pentan-2-ylidene)hydrazinyl]quinoline]: the melting point is 250 °C (dec.). Besides, the “Activity” value in data set [1] is “Inactive”.

As to `C/C(=N\Nc1ccnc2cc(Cl)ccc12)C(C)(C)C` [GPQF-8Q25, 7-Chloro-4-[(2E)-2-(3,3-dimethylbutan-2-ylidene)hydrazinyl]quinoline], the melting point is 228 to 232 °C. The “Activity” value in data set [1] was “Inactive”.

Regarding `C/C(=N\Nc1ccnc2cc(Cl)ccc12)c1ccc(Cl)cc1` [GPQF-8Q26, 7-Chloro-4-{(2E)-2-[1-(4-chlorophenyl)ethylidene]hydrazinyl}quinoline], the melting point lay in the range of 290 to 292 °C. In addition, the “Activity” value in data set [1] was “Inactive”.

By IC50 is commonly meant the concentration that inhibits the measured activity by half. Turning to `Cc1ccc(/C=N/NC(N)=S)cc1` [II], in data set [5], the IC50 was 2.5 µM.

Take `NC(=S)N/N=C/c1ccc[nH]1` [IV]: in data set [5] (unit inferred), the IC50 was 6.8 µM.

With `c1ccc([C@H]2CN3CCSC3=N2)cc1` [LVM, levamisole, reference compound], the “Survival percentage of C. elegans” value in data set [2] (10 μM) is 0%.

`O=C(C1CCCCC1)N1CC(=O)N2CCc3ccccc3C2C1` (centres unmarked) [PZQ, praziquantel, reference compound]: the “SI (selectivity index)” value in data set [3] is reported as greater than 200. Moreover, in data set [4], the half-maximal cytotoxic concentration (CC50) at 72 h is greater than 200 µM. Also, the figures for the EC50 in data set [1] (setting [6]) and in data set [1] (setting [7]) were 1 µM and 0.7 µM, respectively.

As for `NC(=S)N/N=C/c1ccncc1` [V], the IC50 in data set [5] (unit inferred) is 42.4 µM.
